Experiments:
Format in all cases: cell-based
[1] = tested on: Pasteurella multocida 1633; assay: MIC, human bacteria, serial dilution in nutrient agar; settings: nutrient agar containing 5% 'chocolated' horse blood
[2] = tested on: M suipneumoniae J2206/183b; assay: MIC, anti-mycoplasmal, Friis' broth microtiter method
S typhimurium S18 = assay: MIC, veterinary bacteria; settings: veterinary bacteria (Table 2)
Strep pneumoniae CN33 = assay: MIC, human bacteria, serial dilution in nutrient agar; settings: nutrient agar containing 5% 'chocolated' horse blood
M pulmonis JB [3] = assay: MIC, anti-mycoplasmal, Friis' broth microtiter method
M fermentans MWKL4 [4] = assay: as above
M dispar H225 = assay: as above
Strep dysgalaciae SPD1 = assay: MIC, veterinary bacteria; settings: veterinary bacteria (Table 2)
Past multocida PA2 = assay: MIC, veterinary bacteria; settings: veterinary bacteria (Table 2)
M synoviae ATCC 25204 = assay: MIC, anti-mycoplasmal, serial dilution in Friis' agar
Bord bronchiseptica BO8 = assay: MIC, veterinary bacteria; settings: veterinary bacteria (Table 2)
M alkalescens NCTC 10135 = assay: MIC, anti-mycoplasmal, serial dilution in Friis' agar
M bovis NCTC 10131 = assay: as above
M pneumoniae ATCC 15492 [5] = assay: MIC, anti-mycoplasmal, Friis' broth microtiter method
[6] = tested on: Erysipelothrix rhusiopathiae NCTC 8163; assay: MIC, veterinary bacteria; settings: veterinary bacteria (Table 2)
M arthritidis ATCC 14124 = assay: MIC, anti-mycoplasmal, serial dilution in Friis' agar
Bord bronchisptica BO9 = assay: MIC, veterinary bacteria; settings: veterinary bacteria (Table 2)
M pneumoniae ATCC 15492 [7] = assay: MIC, anti-mycoplasmal, serial dilution in Friis' agar
[8] = tested on: Corynebacterium pyogenes CY1; assay: MIC, veterinary bacteria; settings: veterinary bacteria (Table 2)
[9] = tested on: Strep suis (group D) SPS11; assay: MIC, veterinary bacteria; settings: veterinary bacteria (Table 2)
M hyosynoviae ATCC 25591 = assay: MIC, anti-mycoplasmal, serial dilution in Friis' agar
E coli E1 = assay: MIC, veterinary bacteria; settings: veterinary bacteria (Table 2)
M pneumoniae 427a [10] = assay: MIC, anti-mycoplasmal, Friis' broth microtiter method
Strep pyogenes C 2761 = assay: MIC, human bacteria, serial dilution in nutrient agar; settings: nutrient agar containing 5% 'chocolated' horse blood
Past Haemolytica PA5 = assay: MIC, veterinary bacteria; settings: veterinary bacteria (Table 2)
Ps aeruginosa 10662 = assay: MIC, human bacteria, serial dilution in nutrient agar; settings: nutrient agar containing 5% 'chocolated' horse blood
Bacillus subtilis 6633 = assay: as above; settings: nutrient agar containing 5% 'chocolated' horse blood
Staph aureus W2827 = assay: as above; settings: nutrient agar containing 5% 'chocolated' horse blood
Strep faecalis I = assay: as above; settings: nutrient agar containing 5% 'chocolated' horse blood
M pneumoniae 427a [11] = assay: MIC, anti-mycoplasmal, serial dilution in Friis' agar
[12] = tested on: Corynebacterium zerosis 9755; assay: MIC, human bacteria, serial dilution in nutrient agar; settings: nutrient agar containing 5% 'chocolated' horse blood
E coli ESS = assay: as above; settings: nutrient agar containing 5% 'chocolated' horse blood
M hyorhinis ATCC 23234 = assay: MIC, anti-mycoplasmal, serial dilution in Friis' agar
M bovis ATCC 25025 = assay: as above
Strep pyogenes B 2788 = assay: MIC, human bacteria, serial dilution in nutrient agar; settings: nutrient agar containing 5% 'chocolated' horse blood
Sercina lutea 8340 = assay: as above; settings: nutrient agar containing 5% 'chocolated' horse blood
Strep pyogenes A 64/848 = assay: as above; settings: nutrient agar containing 5% 'chocolated' horse blood
[13] = tested on: M bovigenitalium ATCC 14173; assay: MIC, anti-mycoplasmal, serial dilution in Friis' agar
[14] = tested on: Staph aureus B4 (pen resis); assay: MIC, veterinary bacteria; settings: veterinary bacteria (Table 2)
M fermentans MWKL4 [15] = assay: MIC, anti-mycoplasmal, serial dilution in Friis' agar
Staph aureus Oxford [16] = assay: MIC, human bacteria, serial dilution in nutrient agar; settings: nutrient agar containing 5% 'chocolated' horse blood
[17] = tested on: Haemophilus influenzae Wy21; assay: as above; settings: nutrient agar containing 5% 'chocolated' horse blood
E coli NCTC 10418 [18] = assay: as above; settings: nutrient agar containing 5% 'chocolated' horse blood
M gallisepticum S6 = assay: MIC, anti-mycoplasmal, serial dilution in Friis' agar
K aerogenes A = assay: MIC, human bacteria, serial dilution in nutrient agar; settings: nutrient agar containing 5% 'chocolated' horse blood
Past multocida PA1 = assay: MIC, veterinary bacteria; settings: veterinary bacteria (Table 2)
[19] = tested on: Staph aureus 152 (pen sens); assay: MIC, veterinary bacteria; settings: veterinary bacteria (Table 2)
M dispar NCTC 10125 = assay: MIC, anti-mycoplasmal, Friis' broth microtiter method
Strep uberis SPU1 = assay: MIC, veterinary bacteria; settings: veterinary bacteria (Table 2)
[20] = tested on: Neisseria flavescens 8263; assay: MIC, human bacteria, serial dilution in nutrient agar; settings: nutrient agar containing 5% 'chocolated' horse blood
Staph aureus Oxford [21] = assay: MIC, veterinary bacteria; settings: veterinary bacteria (Table 2)
Strep agalactiae SPA1 = assay: MIC, veterinary bacteria; settings: veterinary bacteria (Table 2)
Staph aureus Russell = assay: MIC, human bacteria, serial dilution in nutrient agar; settings: nutrient agar containing 5% 'chocolated' horse blood
E coli NCTC 10418 [22] = assay: MIC, veterinary bacteria; settings: veterinary bacteria (Table 2)
M pulmonis JB [23] = assay: MIC, anti-mycoplasmal, serial dilution in Friis' agar
[24] = tested on: Haemophilus influenzae Q1; assay: MIC, human bacteria, serial dilution in nutrient agar; settings: nutrient agar containing 5% 'chocolated' horse blood
M suipneumoniae Str 11 = assay: MIC, anti-mycoplasmal, Friis' broth microtiter method
S dublin S7 = assay: MIC, veterinary bacteria; settings: veterinary bacteria (Table 2)
P mirabilis 889 = assay: MIC, human bacteria, serial dilution in nutrient agar; settings: nutrient agar containing 5% 'chocolated' horse blood

With 8-Acetvloctyl Monate A [Example 3] the MIC [1] was 1.0 µm/ml, the “in vitro MIC, BROTH” value [2] was 0.156 µg/mL and the MIC (S typhimurium S18) was over 80 µg/mL. For the same substance, the MIC (Strep pneumoniae CN33) was 0.2 µm/ml, the “in vitro MIC, BROTH” value (M pulmonis JB [3]) was under 0.02 µg/mL and the “in vitro MIC, BROTH” value (M fermentans MWKL4 [4]) was under 0.02 µg/mL. For the same substance, the “in vitro MIC, BROTH” value (M dispar H225) was 0.039 µg/mL, the MIC (Strep dysgalaciae SPD1) was 0.156 µg/mL and the MIC (Past multocida PA2) was 0.156 µg/mL. For the same substance, the “in vitro MIC, AGAR” value (M synoviae ATCC 25204) was under 0.02 µg/mL, the MIC (Bord bronchiseptica BO8) was 20 µg/mL and the “in vitro MIC, AGAR” value (M alkalescens NCTC 10135) was 0.039 µg/mL. For the same substance, the “in vitro MIC, AGAR” value (M bovis NCTC 10131) was at most 0.02 µg/mL, the “in vitro MIC, BROTH” value (M pneumoniae ATCC 15492 [5]) was 0.312 µg/mL and the MIC [6] was 10 µg/mL. The “in vitro MIC, AGAR” value (M arthritidis ATCC 14124) was 2.5 µg/mL, the MIC (Bord bronchisptica BO9) was 5 µg/mL and the “in vitro MIC, AGAR” value (M pneumoniae ATCC 15492 [7]) was 1.25 µg/mL. The MIC [8] was over 80 µg/mL, the MIC [9] was 1.25 µg/mL and the “in vitro MIC, AGAR” value (M hyosynoviae ATCC 25591) was 0.156 µg/mL. The MIC (E coli E1) was over 80 µg/mL, the “in vitro MIC, BROTH” value (M pneumoniae 427a [10]) was 0.312 µg/mL and the MIC (Strep pyogenes C 2761) was 0.5 µm/ml. For the same substance, the MIC (Past Haemolytica PA5) was 20 µg/mL, the MIC (Ps aeruginosa 10662) was over 100 µm/ml and the MIC (Bacillus subtilis 6633) was 0.2 µm/ml. For the same substance, the MIC (Staph aureus W2827) was 100 µm/ml, the MIC (Strep faecalis I) was 100 µm/ml and the “in vitro MIC, AGAR” value (M pneumoniae 427a [11]) was 1.25 µg/mL. The MIC [12] was 100 µm/ml, the MIC (E coli ESS) was 0.5 µm/ml and the “in vitro MIC, AGAR” value (M hyorhinis ATCC 23234) was 0.625 µg/mL. For the same substance, the “in vitro MIC, AGAR” value (M bovis ATCC 25025) was 0.039 µg/mL, the MIC (Strep pyogenes B 2788) was 0.5 µm/ml and the MIC (Sercina lutea 8340) was over 100 µm/ml. For the same substance, the MIC (Strep pyogenes A 64/848) was 0.2 µm/ml, the “in vitro MIC, AGAR” value [13] was 0.078 µg/mL and the MIC [14] was 0.312 µg/mL. The “in vitro MIC, AGAR” value (M fermentans MWKL4 [15]) was 0.039 µg/mL, the MIC (Staph aureus Oxford [16]) was 0.1 µm/ml and the MIC [17] was 0.2 µm/ml. The MIC (E coli NCTC 10418 [18]) was 100 µm/ml, the “in vitro MIC, AGAR” value (M gallisepticum S6) was 5.0 µg/mL and the MIC (K aerogenes A) was over 100 µm/ml. The MIC (Past multocida PA1) was 2.5 µg/mL, the MIC [19] was 0.312 µg/mL and the “in vitro MIC, BROTH” value (M dispar NCTC 10125) was under 0.02 µg/mL. It also gave an MIC (Strep uberis SPU1) of 0.07 µg/mL, an MIC [20] of 0.1 µm/ml and an MIC (Staph aureus Oxford [21]) of 0.312 µg/mL. For the same substance, the MIC (Strep agalactiae SPA1) was 0.625 µg/mL, the MIC (Staph aureus Russell) was 9.5 µm/ml and the MIC (E coli NCTC 10418 [22]) was over 80 µg/mL. For the same substance, the “in vitro MIC, AGAR” value (M pulmonis JB [23]) was 0.039 µg/mL, the MIC [24] was 0.2 µm/ml and the “in vitro MIC, BROTH” value (M suipneumoniae Str 11) was 0.039 µg/mL. The MIC (S dublin S7) was over 80 µg/mL and the MIC (P mirabilis 889) was over 100 µm/ml.

Reference: patent publication EP0025288A1, “Derivatives of monic acid, processes for their preparation, compositions containing them and their preparation” (priority 1979, dated 1981)
